Values of other authors, collected in patent publication US11980624B2, “Methods for administering compositions comprising hydroxytyrosol and boswellic acid” (Nutramax Laboratories, Inc., priority 2016, dated 2024).

Settings: single oral 2.5 mg/kg dose, human subjects

In the case of `OCCc1ccc(O)c(O)c1` [hydroxytyrosol, 4-(2-Hydroxyethyl)-1,2-benzenediol], the peak plasma concentration is listed as 1.11 ± 0.20 µmol/L.
